Measurements published in EP4813381A1, “PHARMACEUTICAL USE OF GUAIANE SESQUITERPENE DERIVATIVE” (Nanjing University Of Chinese Medicine, priority 2023, dated 2025).

How the values were obtained:
[1] = tested on: inflammatory cytokines (IL-1β, IL-6); assay: LPS acute lung injury model in mice: ELISA of inflammatory cytokines; format: in vivo, C57BL/6 mice
Description: The abdomen was opened, and the lungs were removed. They were rinsed twice with pre-chilled PBS. […] P values less than 0.05 were considered statistically significant.

[2] = tested on: diabetic nephropathy; assay: Diabetic nephropathy (STZ + HFD, DKD) mice: Scr and BUN; format: in vivo, C57/BL6J mice; details: serum, 8 weeks
Description: Production license number: SCXK(Su)2023-0009. […] Animals were acclimated for 7 days before use in experiments.
Administer streptozotocin (STZ, 50 mg/kg) via intraperitoneal injection for 5 consecutive days. After 72 hours, select mice with fasting blood glucose levels exceeding 16.7 mmol/L as model mice. […] Model mice were fed a high-fat diet (HFD) providing 60% of energy from fat for 8 weeks. After 8 weeks, gavage administration commenced.
Specimen Collection: One hour after the last drug administration, enucleate the eyeball to collect blood. Allow blood to stand at room temperature for 2 hours, then centrifuge at 3000 rpm for 20 minutes. Aspirate the serum, aliquot it, and store at -70 °C for future use. After blood collection, euthanize the mice by cervical dislocation. Open the abdominal cavity, remove the kidneys, and dissect away the perirenal fat and capsule. Store the tissue at -70 °C for future use.
Serum Creatinine (Scr) and Blood Urea Nitrogen (BUN) Assay: For each sample, 10 µL of serum was used for creatinine and urea level detection. Samples were added sequentially strictly following the kit instructions. After incubation at 37 °C, absorbance values were measured using an enzyme-linked immunosorbent assay (ELISA) reader. The concentration levels of each indicator were calculated based on the standard curve.

[3] = tested on: MDSCs and T cells; assay: T cell proliferation in a co-culture model of MDSCs and T cells (flow cytometry); format: cell-based, mice; details: MDSCs treated with 1 µM compound for 12 h, 48 h co-culture with T cells (1:1), compared to the control group
[4] = tested on: Hepa1-6 cells; assay: Hepa1-6 mouse hepatocellular carcinoma subcutaneous xenograft model; format: in vivo, C57BL/6 mice; details: Hepa1-6, oral 40 µmol/kg/d, 2 weeks
Description: Hepa1-6 cells were cultured and expanded in vitro. An appropriate amount of cells in the logarithmic growth phase was resuspended in a mixture of serum-free DMEM medium and Matrigel (1:1). under aseptic conditions to prepare a 2.5×10^6/100 µL cell suspension. A 100 µL aliquot of this suspension was injected subcutaneously into the left forearm axilla of male C57BL/6 mice. […] Daily oral administration was performed for 2 weeks. During the treatment period, mouse body weight and tumor diameter were measured daily. At the end of the experiment, mice were euthanized by cervical dislocation, and tumors were removed for weighing. Tumor volume (TV) was calculated using the formula: TV = 1/2 × a × b^2, where a represents the longest diameter of the tumor and b represents the shortest diameter.

[5] = Safety evaluation of Compound 20: 30-day oral gavage in mice (body weight, activity status, survival rate)
[6] = oral gavage 0.1 mg/kg for three days
[7] = oral gavage 1 mg/kg for three days

Row | Structure (SMILES) | IL-1β [1, 6] | IL-6 [1, 6] | IL-1β [1, 7] | IL-6 [1, 7] | BUN ([2]; gavage 1 mg/kg) | Scr ([2]; gavage 1 mg/kg) | BUN ([2]; gavage 10 mg/kg) | Scr ([2]; gavage 10 mg/kg) | T-cell proliferation rate (%) [3] | Tumor Inhibition Rate (%) [4] | Tumor weight [4] | effect on mouse survival rate ([5]; 500 mg/kg and 1000 mg/kg, 30 days) | time to recover to normal activity after administration ([5]; 500, 1000 mg/kg oral gavage) | effect on mouse activity status ([5]; 500, 1000 mg/kg oral gavage once daily, 30 days) | effect on mouse body weight ([5]; 500, 1000 mg/kg oral gavage once daily, 30 days, female and male mice) | Survival rate ([5]; female C57BL/6 mice, 500 mg/kg oral gavage once daily for 30 days) | Survival rate ([5]; female C57BL/6 mice, 1000 mg/kg oral gavage once daily for 30 days) | Survival rate ([5]; male C57BL/6 mice, 500 mg/kg oral gavage once daily for 30 days) | Survival rate ([5]; male C57BL/6 mice, 1000 mg/kg oral gavage once daily for 30 days)
1 | C=C1C(=O)O[C@@H]2[C@@H]3[C@]4(CC[C@@]3(C)O)C[C@]4(C)CC[C@@H]12 [compound 1] | 1824.88 ± 32.73 pg/mL | 2760.57 ± 288.02 pg/mL | 945.66 ± 36.71 pg/mL | 1314.91 ± 231.08 pg/mL |  |  |  |  |  |  |  |  |  |  |  |  |  |  | 
2 | CN(C)C[C@@H]1C(=O)O[C@H]2[C@H]1CC[C@@]1(C)C[C@]13CC[C@@](C)(O)[C@H]23 [compound 20] |  |  |  |  | 37.01±2.50 | 17.72±1.658 | 19.71±1.22 | 12.96±0.78 | + (T-cell proliferation rate within the 0-20% range compared to the control group) | 96.78% | 0.03 ± 0.02 g | no significant effect on the survival rate | 1 to 2 h | relatively reduced activity and lethargy after each administration | no significant effect on the body weight | 100% | 100% | 100% | 100.00%
